{"source": "paper PMC12029898", "about": "“Cellular Metabolomics Reveals Differences in the Scope of Liver Protection Between Ammonium-Based Glycyrrhizinate and Magnesium Isoglycyrrhizinate” (Metabolites, 2025)", "tested_on": "LO2 cells", "assay": "Cell metabolomics (UPLC-MS/MSe) of APAP-injured LO2 cells, differential metabolites DIAM vs MAGN", "assay_type": "cell-based, human", "details": "600 μM, 48 h", "protocol": "LC-MS/MS analysis was conducted utilizing a Waters Acquity H UPLC system, interfaced with a Q-MS detector (Xevo G3 QTof, Waters, Milford, MA, USA). Chromatographic separation of metabolites was achieved on a BEH C18 Column (1.7 µm, 2.1 mm × 100 mm, Waters), maintained at a temperature of 40 °C. The injector sample chamber was maintained at 4 °C to ensure optimal sample handling. For positive ion analysis, the mobile phase comprised two solvents, 0.1% formic acid in water (solvent A) and acetonitrile (solvent B), delivered at a flow rate of 300 μL/min. The elution gradient was programmed as follows (acetonitrile percentage): 0–1 min 5%, 1–2 min 5–30%, 2–4 min 30–50%, 4–16 min 50–90%, 19–21 min 95%, 21–21.1 min 95–5%, and 21.1–23 min 5%. The capillary, sample cone, and source offset were set as 2.18 kV, 40, and 30. The temperatures of the source and desolvation were 100 and 600 °C. The gas flow of the cone gas and desolvation gas was set as 50 and 800 L/h. For the negative ion mode, the mobile phase consisted of 10 mM ammonium acetate (solvent A) and acetonitrile (solvent B), delivered at a flow rate of 300 μL/min. The elution gradient was programmed as follows: 0–1 min, 5%; 1–3 min, 5–80%; 3–4 min, 80–82%; 4–6 min, 82–88%; 6–25 min, 88–92%; 25–27 min, 92–95%; 27–27.1 min, 95–5%; 27.1–29 min, 5%. The mass spectrometry conditions were similar to those employed in the positive mode, with the exception of the capillary voltage, which was set to 2 kV. All samples were analyzed using an ESI source in MSe full scan mode, with a mass range spanning from m/z 50 to 2000 and a scan time of 0.5 s. Additionally, an automatic calibration system was employed to automatically adjust the MS and MSe parameters every 10 s.\nLO2 cells in the logarithmic growth phase were seeded into a 6-well plate at a density of 3 × 10^4 cells per well and incubated overnight under conditions of 37 °C and 5% CO2. Subsequently, varying concentrations of APAP were introduced, and MONO, DIAM, and MAGN were dissolved in the culture medium prior to their addition to the wells, ensuring a final concentration of 600 μM. The cells were then exposed to these samples for 48 h, following which the culture medium was discarded. The cells were rinsed with pre-cooled PBS at 4 °C and subsequently inactivated by the addition of 80% methanol maintained at a temperature below −20 °C. The cells were scraped off and homogenized using a cell disruptor for 3 min in an ice bath. The homogenized samples were centrifuged at 7500× g for 20 min at 4 °C, and the resultant supernatant was collected and dried using nitrogen gas. The dried samples were redissolved in 80% methanol at −20 °C, vortexed for 1 min, sonicated for 30 s, and then centrifuged again at 7500× g for 20 min at 4 °C. A total of 10 μL was allocated from each sample and mixed as a quality control (QC) sample, while 5 μL of the supernatant was subjected to UPLC-MS/MSe data acquisition on the instrument. The entire procedure was repeated in parallel for all samples, with a total of six replicates performed.\nFirstly, the raw data in the “.raw” format were imported into Progenesis QI software (Waters, Milford, MA, USA). This processing encompassed peak alignment, deconvolution, denoising, and other essential steps, resulting in the extraction of crucial information including retention time, charge-to-mass ratio, compound names, peak areas, and related parameters. To ensure data comparability and accuracy, each peak was then normalized against the total ion intensity, yielding a standardized matrix of retention time, peak area, and m/z values. […] Concurrently, the processed data were imported into SIMCA-P 14.0 software (Umetrics, Umeaa, Sweden) for advanced multivariate statistical analysis, encompassing principal component analysis (PCA) and supervised Orthogonal Partial Least Squares Discriminant Analysis (OPLS-DA). […]", "data": [{"smiles": "CC1(C)[C@@H](O[C@H]2O[C@H](C(=O)O)[C@@H](O)[C@H](O)[C@H]2O[C@@H]2O[C@H](C(=O)O)[C@@H](O)[C@H](O)[C@H]2O)CC[C@]2(C)[C@H]3C(=O)C=C4[C@H]5C[C@@](C)(C(=O)O)CC[C@]5(C)CC[C@@]4(C)[C@]3(C)CC[C@@H]12", "note": "[MAGN, magnesium isoglycyrrhizinate]", "values": [{"measurement": "GSH-to-GSSG ratio", "setting": "MAGN compared to DIAM", "result": "stable"}, {"measurement": "FC of Alpha-Cehc", "setting": "highest group MAGN vs DIAM", "result": 1.21}, {"measurement": "FC of Dioleoylphosphatidylserine", "setting": "highest group MAGN vs DIAM", "result": 1.92}, {"measurement": "FC of GSH", "setting": "highest group MAGN vs DIAM", "result": 1.24}, {"measurement": "FC of GSSG", "setting": "highest group MAGN vs DIAM", "result": 1.28}, {"measurement": "FC of Menaquinol-8", "setting": "highest group MAGN vs DIAM", "result": 1.68}, {"measurement": "FC of N-[(15Z)-tetracosenoyl]sphing-4-enine-1-phosphocholine", "setting": "highest group MAGN vs DIAM", "result": 2.55}, {"measurement": "FC of Solanidine", "setting": "highest group MAGN vs DIAM", "result": 1.32}]}, {"smiles": "CC1(C)[C@@H](O[C@H]2O[C@H](C(=O)O)[C@@H](O)[C@H](O)[C@H]2O[C@@H]2O[C@H](C(=O)O)[C@@H](O)[C@H](O)[C@H]2O)CC[C@]2(C)[C@H]3C(=O)C=C4[C@@H]5C[C@@](C)(C(=O)O)CC[C@]5(C)CC[C@@]4(C)[C@]3(C)CC[C@@H]12", "note": "[DIAM, diammonium glycyrrhizinate]", "values": [{"measurement": "FC of 3-(10Z)-10-Heptadecen-1-ylphenol", "setting": "highest group DIAM vs MAGN", "result": 1.68}, {"measurement": "FC of 7-Dehydrocholesterol benzoate", "setting": "highest group DIAM vs MAGN", "result": ">10"}, {"measurement": "FC of 8-Demethyl meiqx", "setting": "highest group DIAM vs MAGN", "result": 1.92}, {"measurement": "FC of 25-Hydroxyvitamin D2", "setting": "highest group DIAM vs MAGN", "result": 3.85}, {"measurement": "FC of Ammonium glycyrrhizate", "setting": "highest group DIAM vs MAGN", "result": 2.12}, {"measurement": "FC of Argiotoxin 659", "setting": "highest group DIAM vs MAGN", "result": 2.98}, {"measurement": "FC of Butyroin", "setting": "highest group DIAM vs MAGN", "result": 1.23}, {"measurement": "FC of C14 Ceramide", "setting": "highest group DIAM vs MAGN", "result": 1.20}, {"measurement": "FC of C16 Lactosylceramide (d18:1/16:0)", "setting": "highest group DIAM vs MAGN", "result": 1.24}, {"measurement": "FC of CETYL BENZOATE", "setting": "highest group DIAM vs MAGN", "result": 1.37}, {"measurement": "FC of Cerlapirdine", "setting": "highest group DIAM vs MAGN", "result": ">10"}, {"measurement": "FC of Ergocryptine", "setting": "highest group DIAM vs MAGN", "result": 1.92}, {"measurement": "FC of Euscaphic acid", "setting": "highest group DIAM vs MAGN", "result": 4.79}, {"measurement": "FC of Floctafenine", "setting": "highest group DIAM vs MAGN", "result": 4.41}, {"measurement": "FC of Glabric acid", "setting": "highest group DIAM vs MAGN", "result": ">10"}, {"measurement": "FC of Glycerol phenylbutyrate", "setting": "highest group DIAM vs MAGN", "result": 1.36}, {"measurement": "FC of Glycyrrhetaldehyde", "setting": "highest group DIAM vs MAGN", "result": ">10"}, {"measurement": "FC of Glycyrrhizin", "setting": "highest group DIAM vs MAGN", "result": 1.24}, {"measurement": "FC of Gypsogenin", "setting": "highest group DIAM vs MAGN", "result": 1.79}, {"measurement": "FC of N-eicosanoylsphinganine", "setting": "highest group DIAM vs MAGN", "result": 2.07}, {"measurement": "FC of N-tetracosanoylsphinganine", "setting": "highest group DIAM vs MAGN", "result": ">10"}, {"measurement": "FC of Onnamide A", "setting": "highest group DIAM vs MAGN", "result": 2.42}, {"measurement": "FC of Pinnatoxin G", "setting": "highest group DIAM vs MAGN", "result": 1.55}, {"measurement": "FC of Prednisolone sodium tetrahydrophthalic", "setting": "highest group DIAM vs MAGN", "result": 1.66}, {"measurement": "FC of Pristimerin", "setting": "highest group DIAM vs MAGN", "result": 1.26}, {"measurement": "FC of Propapyriogenin A2", "setting": "highest group DIAM vs MAGN", "result": 6.06}, {"measurement": "FC of Sampangine", "setting": "highest group DIAM vs MAGN", "result": ">10"}, {"measurement": "FC of Sphingosine-1-phosphate (d16:1)", "setting": "highest group DIAM vs MAGN", "result": 3.78}, {"measurement": "FC of Stanozolol", "setting": "highest group DIAM vs MAGN", "result": 1.81}, {"measurement": "FC of Testosterone ketolaurate", "setting": "highest group DIAM vs MAGN", "result": 1.67}, {"measurement": "FC of Tetrahydrospirilloxanthin", "setting": "highest group DIAM vs MAGN", "result": 1.29}, {"measurement": "FC of Tirilazad", "setting": "highest group DIAM vs MAGN", "result": 1.74}, {"measurement": "FC of Tisocalcitate", "setting": "highest group DIAM vs MAGN", "result": 1.39}, {"measurement": "FC of Trametenolic acid", "setting": "highest group DIAM vs MAGN", "result": ">10"}, {"measurement": "FC of Varespladib", "setting": "highest group DIAM vs MAGN", "result": 1.71}]}]}
